Test results from publication PMC9578396, “Intrinsic Antibacterial Activity of Xeruborbactam In Vitro: Assessing Spectrum and Mode of Action” (Antimicrobial Agents and Chemotherapy, 2022).
Like-named read-outs stand apart in the source and are kept apart here.

What was measured:
Assay type in all cases: cell-based
Pseudomonas aeruginosa = assay: Broth microdilution MIC (CLSI), Pseudomonas aeruginosa
Excerpt: (§1) (i) Panels of engineered bacterial strains containing various combinations of porin and efflux mutations were used. The construction of all the strains used in the study is described in detail in references, [44], and [45]. (ii) KPC-producing clinical isolates and their derivatives that lost KPC plasmids were used also. These strains and their origins are described in the Table S2. (iii) Finally, KPC-producing clinical isolates enriched in strains with porin mutations were used. The mutations identified include various deletions, insertions, nonsense mutations, and decreased expression. Most of the isolates were obtained from JMI Laboratories or International Health Management Associates (IHMA); they were collected in the course of global surveillance studies.
(§2) Bacterial isolates were subjected to broth microdilution susceptibility testing, performed according to Clinical and Laboratory Standards Institute (CLSI) methods ([46]), using panels prepared in-house. […] Xeruborbactam was synthesized at Qpex Biopharma, San Diego, CA. Avibactam was purchased from eNovation Chemicals LLC, Bridgewater, NJ, USA; zidebactam was from MedKoo Biosciences, Inc., Morrisville, NC, and nacubactam was from Advanced ChemBlocks, Hayward, CA. Durlobactam was synthesized at Acme Bioscience, Palo Alto, CA, USA.

Acinetobacter baumannii = assay: Broth microdilution MIC (CLSI), Acinetobacter baumannii; conditions: Acinetobacter baumannii, read-out: MIC
Excerpt: as §1, §2

Klebsiella pneumoniae = assay: microbe, parasite or virus in culture; conditions: for MIC90: read-out: MIC90
Excerpt: as §1, §2

[1] = PAM1154 (oprM::Hg), xeruborbactam 0 µg/ml
[2] = Klebsiella pneumoniae, KPC-producing clinical strains with functional OmpK36, alone
[3] = Klebsiella pneumoniae, KPC-producing clinical strains with nonfunctional OmpK36, alone
[4] = Klebsiella pneumoniae, KPC-producing clinical strains, all strains (n = 141), alone

In the case of `CCN1CCN(C(=O)N[C@@H](C(=O)N[C@@H]2C(=O)N3[C@@H]2SC(C)(C)[C@@H]3C(=O)O)c2ccccc2)C(=O)C1=O` [Piperacillin], the MIC (Pseudomonas aeruginosa; [1]) is reported as 0.5 µg/mL, the MIC (Pseudomonas aeruginosa; PAM1154, xeruborbactam 2 µg/ml) is reported as 0.125 µg/mL and the MIC (Pseudomonas aeruginosa; PAM1154, xeruborbactam 4 µg/ml) is reported as 0.125 µg/mL. For the same compound, the MIC (Pseudomonas aeruginosa; PAM1154, xeruborbactam 8 µg/ml) was 0.06 µg/mL.

`CC1(C)[C@H](C(=O)O)N2C(=O)C[C@H]2S1(=O)=O` [Sulbactam] was tested, and the MIC (Acinetobacter baumannii; AB1007 (no beta-lactamase), xeruborbactam 0 µg/ml) was 2 µg/mL, the MIC (Acinetobacter baumannii; AB1007, xeruborbactam 2 µg/ml) was 2 µg/mL and the MIC (Acinetobacter baumannii; AB1007, xeruborbactam 4 µg/ml) was 2 µg/mL. It also gave an MIC (Acinetobacter baumannii; AB1007, xeruborbactam 8 µg/ml) of 0.25 µg/mL.

Compound `C[C@@H](O)[C@H]1C(=O)N2C(C(=O)O)=C(SC3CN(C4=NCCS4)C3)[C@H](C)[C@H]12` [Tebipenem] has an MIC (Klebsiella pneumoniae; KPM1026a (no beta-lactamase), xeruborbactam 0 µg/ml) of 0.03 µg/mL, an MIC (Klebsiella pneumoniae; KPM1026a, xeruborbactam 2 µg/ml) of 0.03 µg/mL and an MIC (Klebsiella pneumoniae; KPM1026a, xeruborbactam 4 µg/ml) of 0.016 µg/mL. It also gave an MIC (Klebsiella pneumoniae; KPM1026a, xeruborbactam 8 µg/ml) of 0.004 µg/mL.

For `O=C(O)C[C@@H]1CC[C@H](NC(=O)Cc2cccs2)B(O)O1` [Vaborbactam], the “effect on beta-lactam MIC” value (Klebsiella pneumoniae; KPM1026a, vaborbactam up to 64 μg/mL, data not shown) was “no reduction”, the MIC50 (Klebsiella pneumoniae; [2]) was > 64 µg/mL and the MIC90 (Klebsiella pneumoniae; [2]) was > 64 µg/mL. For the same compound, the MIC50 (Klebsiella pneumoniae; [3]) was > 64 µg/mL, the MIC90 (Klebsiella pneumoniae; [3]) was > 64 µg/mL and the MIC50 (Klebsiella pneumoniae; [4]) was > 64 µg/mL. For the same compound, the MIC90 (Klebsiella pneumoniae; [4]) was > 64 µg/mL, the MIC (Klebsiella pneumoniae; Klebsiella pneumoniae, KPM1271 (KPC-3; wild type), alone, read-out: MIC) was > 128 µg/mL and the MIC (Klebsiella pneumoniae; Klebsiella pneumoniae, KPM1272 (KPC-3; ramR_fs), alone, read-out: MIC) was > 128 µg/mL. For the same compound, the MIC (Klebsiella pneumoniae; Klebsiella pneumoniae, KPM1273 (KPC-3; ramR_fs ompK36_1171), alone, read-out: MIC) was > 128 µg/mL, the MIC (Klebsiella pneumoniae; Klebsiella pneumoniae, KPM2067 (KPC-3; ompK36_fs), alone, read-out: MIC) was > 128 µg/mL and the MIC (Klebsiella pneumoniae; Klebsiella pneumoniae, KPM2601 (KPC-3; ΔompK35), alone) was > 128 µg/mL. For the same compound, the MIC (Klebsiella pneumoniae; Klebsiella pneumoniae, KPM2631 (KPC-3; ompK36_fs ΔompK35), alone) was > 128 µg/mL.

For `Cn1c(N)c(NC(=O)NCCN)c[n+]1CC1=C(C(=O)O)N2C(=O)[C@@H](NC(=O)/C(=N\OC(C)(C)C(=O)[O-])c3nsc(N)n3)[C@H]2SC1` [ceftolozane], the MIC (Pseudomonas aeruginosa; [1]) was 0.5 µg/mL, the MIC (Pseudomonas aeruginosa; PAM1154, xeruborbactam 2 µg/ml) was 0.25 µg/mL and the MIC (Pseudomonas aeruginosa; PAM1154, xeruborbactam 4 µg/ml) was 0.25 µg/mL. For the same compound, the MIC (Pseudomonas aeruginosa; PAM1154, xeruborbactam 8 µg/ml) was 0.125 µg/mL.

Work on `CC1=C(C(=O)O)N2C(=O)[C@@H](NC(=O)[C@H](N)c3ccccc3)[C@H]2SC1` [cephalexin] yielded an MIC (Klebsiella pneumoniae; Klebsiella pneumoniae) of 128 µg/mL.
